The text below walks through data of patent publication US12139520B2 (priority 2020, dated 2024).

Read-outs that look alike come from different tables or passages of the source. Bridge positions count the residues as written; N and C are the ends. Square brackets hold non-standard residues; d marks the D form. Peptide text beside a SMILES is read from it. Hyp = O=C(O)[C@@H]1C[C@@H](O)CN1

For one data set, the target named is T1, hAMY3 receptor (Homo sapiens, UniProt O60896+P30988).
T1 sequence (P30988 25-474): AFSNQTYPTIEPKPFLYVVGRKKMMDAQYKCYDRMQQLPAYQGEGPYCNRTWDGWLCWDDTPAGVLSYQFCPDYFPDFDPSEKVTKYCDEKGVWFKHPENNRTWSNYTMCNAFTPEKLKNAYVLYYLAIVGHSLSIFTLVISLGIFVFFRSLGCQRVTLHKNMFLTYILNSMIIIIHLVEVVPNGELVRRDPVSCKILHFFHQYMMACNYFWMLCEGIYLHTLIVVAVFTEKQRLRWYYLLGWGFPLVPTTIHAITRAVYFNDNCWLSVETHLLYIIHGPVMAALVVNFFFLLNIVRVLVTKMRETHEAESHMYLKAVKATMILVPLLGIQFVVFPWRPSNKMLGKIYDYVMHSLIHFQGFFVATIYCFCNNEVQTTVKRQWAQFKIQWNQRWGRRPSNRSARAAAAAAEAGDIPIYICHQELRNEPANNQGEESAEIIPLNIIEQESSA
T1 sequence (O60896 24-148 partner): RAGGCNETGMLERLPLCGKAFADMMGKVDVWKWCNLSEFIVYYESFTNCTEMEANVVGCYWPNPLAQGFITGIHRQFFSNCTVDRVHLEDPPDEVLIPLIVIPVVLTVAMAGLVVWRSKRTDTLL
Put plainly: cAMP assay for in vitro receptor activation, hAMY3-R. It is filed as cell-based. In outline: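 Thawed cells from a sub-cloned monoclonal hAMY3-overexpressing line are plated in DPBS containing 0.05% casein and 0.5 mM IBMX. Test compounds are added immediately at graded doses for 30 min at room temperature. Reagents for cAMP detection are then added, and TR-FRET is recorded after one hour.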

Data set [1] can be described thus: Physical stability of peptide analogues (Thioflavin T fibrillation). It is filed as physicochemical. The note with it: maximum ThT signal normalized between hAMY maximum and buffer background; 40° C., shaking, four days; pH 7 per table title. In outline:
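1 h in 50 mM NaOAc pH 4 / 50 mM NaPi pH 7; + ThT 4 μM final; 40 °C, 700 rpm linear shake 5 min pre-read; ex 450, em 480 nm q10 min × 4 d; LOESS smoothing; max signal normalised to hAMY max vs buffer blank.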

For a further data set, the target named is hAM1 receptor (Homo sapiens, UniProt O60895+Q16602). Put plainly: cAMP assay for in vitro receptor activation, hAM1-R. It is filed as cell-based. The settings on record: for EC50: read-out: hAM1R EC50. In outline:
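cAMP accumulation was measured in a monoclonal cell line stably overexpressing the hAM1 receptor. Frozen aliquots were thawed and plated at 8000 cells/well in DPBS containing 0.05% casein and 0.5 mM IBMX.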

Chain of hAM1 receptor (Q16602 23-461): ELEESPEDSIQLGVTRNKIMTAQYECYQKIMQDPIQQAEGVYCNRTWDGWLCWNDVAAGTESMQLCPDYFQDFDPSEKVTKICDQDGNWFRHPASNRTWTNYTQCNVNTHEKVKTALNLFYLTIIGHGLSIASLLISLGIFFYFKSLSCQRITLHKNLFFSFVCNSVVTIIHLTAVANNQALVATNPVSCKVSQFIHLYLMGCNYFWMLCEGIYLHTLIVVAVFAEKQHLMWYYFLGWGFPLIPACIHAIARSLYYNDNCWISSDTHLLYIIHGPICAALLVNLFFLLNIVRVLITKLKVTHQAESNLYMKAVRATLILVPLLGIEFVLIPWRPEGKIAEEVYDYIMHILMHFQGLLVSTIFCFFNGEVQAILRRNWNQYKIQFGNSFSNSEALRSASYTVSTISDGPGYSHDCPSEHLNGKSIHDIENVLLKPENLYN
Chain of hAM1 receptor (O60895 43-175 partner): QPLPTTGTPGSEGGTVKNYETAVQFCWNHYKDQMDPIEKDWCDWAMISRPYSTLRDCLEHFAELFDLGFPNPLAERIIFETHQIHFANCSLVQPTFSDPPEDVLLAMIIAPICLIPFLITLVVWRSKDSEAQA

Turning to `CC[C@H](C)[C@H](NC(=O)[C@H](CCC(N)=O)NC(=O)[C@H](Cc1c[nH]cn1)NC(=O)[C@H](C)NC(=O)[C@H](CC(C)C)NC(=O)[C@H](CCCNC(=N)N)NC(=O)[C@H](CCC(N)=O)NC(=O)[C@@H](NC(=O)[C@@H](NC(=O)[C@@H]1CSSC[C@H](NC(=O)CN)C(=O)N[C@@H](CCCNC(=N)N)C(=O)N[C@@H](Cc2ccccc2)C(=O)NCC(=O)N[C@@H]([C@@H](C)O)C(=O)N1)[C@@H](C)O)C(C)C)C(=O)N[C@@H](Cc1ccc(O)cc1)C(=O)N[C@@H](CCC(N)=O)C(=O)N[C@@H](Cc1ccccc1)C(=O)N[C@H](C(=O)N[C@@H](CC(=O)O)C(=O)N[C@@H](CCCCN)C(=O)N[C@@H](CC(=O)O)C(=O)N[C@@H](CCCCN)C(=O)N[C@@H](CC(=O)O)C(=O)N[C@@H](CC(N)=O)C(=O)N[C@H](C(=O)N[C@@H](C)C(=O)N1CCC[C@H]1C(=O)N[C@@H](CCCNC(=N)N)C(=O)N[C@@H](CO)C(=O)N[C@@H](CCCCN)C(=O)N[C@H](C(=O)N[C@@H](CO)C(=O)N1CCC[C@H]1C(=O)N[C@@H](CCC(N)=O)C(=O)NCC(=O)N1C[C@H](O)C[C@H]1C(N)=O)[C@@H](C)CC)C(C)C)[C@@H](C)O` [SEQ ID NO: 169, GCRFGTCTVQRLAHQIYQFTDKDKDNVAPRSKISPQG Hyp] (H-GCRFGTCTVQRLAHQIYQFTDKDKDNVAPRSKISPQG[Hyp]-NH2; disulfide 2-7; N-terminus assumed), the EC50 was 63 pM at hAMY3 receptor (cAMP accumulation, cells stably overexpressing hAMY3 receptor, 30 min stimulation, read-out: hAMY3R EC50) and 2.98 µM at hAM1 receptor (cAMP accumulation, cells stably overexpressing hAM1 receptor, 30 min stimulation). In addition, the “improvement of potency on AMY3R compared to hAM15-52” value on hAMY3 receptor (relative to SEQ ID NO: 1) is “approximately 20 fold”. The “Max ThT signal (%)” value in data set [1] turned out to be 2.700%. Also, at hAM1 receptor (relative to SEQ ID NO: 1), the “decrease of potency on AM1R compared to hAM15-52” value is listed as “approximately 2500 fold”.

As to `CC[C@H](C)[C@H](NC(=O)[C@H](CCCCN)NC(=O)[C@H](CO)NC(=O)[C@H](CCCNC(=N)N)NC(=O)[C@@H]1CCCN1C(=O)[C@H](C)NC(=O)[C@@H](NC(=O)[C@H](CC(N)=O)NC(=O)[C@H](CC(=O)O)NC(=O)[C@H](CCCCN)NC(=O)[C@H](CC(=O)O)NC(=O)[C@H](CCCCN)NC(=O)[C@H](CC(=O)O)NC(=O)[C@@H](NC(=O)[C@H](Cc1ccccc1)NC(=O)[C@H](CCC(N)=O)NC(=O)[C@H](Cc1ccc(O)cc1)NC(=O)[C@@H](NC(=O)[C@H](CCC(N)=O)NC(=O)[C@H](Cc1c[nH]cn1)NC(=O)[C@H](C)NC(=O)[C@H](CC(C)C)NC(=O)[C@H](Cc1c[nH]c2ccccc12)NC(=O)[C@H](CCC(N)=O)NC(=O)[C@@H](NC(=O)[C@@H](NC(=O)[C@@H]1CSSC[C@H](NC(=O)CN)C(=O)N[C@@H](CCCNC(=N)N)C(=O)N[C@@H]([C@@H](C)O)C(=O)NCC(=O)N[C@@H]([C@@H](C)O)C(=O)N1)[C@@H](C)O)C(C)C)[C@@H](C)CC)[C@@H](C)O)C(C)C)C(=O)NCC(=O)N1CCC[C@H]1C(=O)N[C@@H](CC(N)=O)C(=O)NCC(=O)N1C[C@H](O)C[C@H]1C(N)=O` [compound 355] (H-GCRTGTCTVQWLAHQIYQFTDKDKDNVAPRSKIGPNG[Hyp]-NH2; disulfide 2-7; N-terminus assumed), in data set [1], the “Max ThT signal (%)” value amounted to 25.350%. Moreover, on hAM1 receptor (cAMP assay, hAM1 receptor), the EC50 is > 5 µM.

For the compound `CC[C@H](C)[C@H](NC(=O)[C@H](CC(N)=O)NC(=O)[C@@H](NC(=O)[C@H](CCCNC(=N)N)NC(=O)[C@@H]1CCCN1C(=O)[C@H](C)NC(=O)[C@@H](NC(=O)[C@H](CC(N)=O)NC(=O)[C@H](CC(=O)O)NC(=O)[C@H](CCCCN)NC(=O)[C@H](CC(=O)O)NC(=O)[C@H](CCCCN)NC(=O)[C@H](CC(=O)O)NC(=O)[C@@H](NC(=O)[C@H](Cc1ccccc1)NC(=O)[C@H](CCC(N)=O)NC(=O)[C@H](Cc1ccc(O)cc1)NC(=O)[C@@H](NC(=O)[C@H](CCC(N)=O)NC(=O)[C@H](Cc1c[nH]cn1)NC(=O)[C@H](C)NC(=O)[C@H](CC(C)C)NC(=O)[C@H](Cc1c[nH]c2ccccc12)NC(=O)[C@H](CCC(N)=O)NC(=O)[C@@H](NC(=O)[C@@H](NC(=O)[C@@H]1CSSC[C@H](NC(=O)CN)C(=O)N[C@@H](CCCNC(=N)N)C(=O)N[C@@H]([C@@H](C)O)C(=O)NCC(=O)N[C@@H]([C@@H](C)O)C(=O)N1)[C@@H](C)O)C(C)C)[C@@H](C)CC)[C@@H](C)O)C(C)C)[C@@H](C)O)C(=O)NCC(=O)N1CCC[C@H]1C(=O)N[C@@H](CCC(N)=O)C(=O)NCC(=O)N[C@@H](Cc1ccc(O)cc1)C(N)=O` [compound 356] (H-GCRTGTCTVQWLAHQIYQFTDKDKDNVAPRTNIGPQGY-NH2; disulfide 2-7), the “Max ThT signal (%)” value in data set [1] came to 1.250%. Further, at hAM1 receptor (cAMP assay, hAM1 receptor), the EC50 was > 5 µM.

As to `CC[C@H](C)[C@H](NC(=O)[C@H](CCCCN)NC(=O)[C@@H](NC(=O)[C@H](CCCNC(=N)N)NC(=O)[C@@H]1CCCN1C(=O)[C@H](C)NC(=O)[C@@H](NC(=O)[C@H](CC(N)=O)NC(=O)[C@H](CC(=O)O)NC(=O)[C@H](CCCCN)NC(=O)[C@H](CC(=O)O)NC(=O)[C@H](CCCCN)NC(=O)[C@H](CC(=O)O)NC(=O)[C@@H](NC(=O)[C@H](Cc1ccccc1)NC(=O)[C@H](CCC(N)=O)NC(=O)[C@H](Cc1ccc(O)cc1)NC(=O)[C@@H](NC(=O)[C@H](CCC(N)=O)NC(=O)[C@H](Cc1c[nH]cn1)NC(=O)[C@H](C)NC(=O)[C@H](CC(C)C)NC(=O)[C@H](Cc1c[nH]c2ccccc12)NC(=O)[C@H](CCC(N)=O)NC(=O)[C@@H](NC(=O)[C@@H](NC(=O)[C@@H]1CSSC[C@H](NC(=O)CN)C(=O)N[C@@H](CCCNC(=N)N)C(=O)N[C@@H]([C@@H](C)O)C(=O)NCC(=O)N[C@@H]([C@@H](C)O)C(=O)N1)[C@@H](C)O)C(C)C)[C@@H](C)CC)[C@@H](C)O)C(C)C)[C@@H](C)O)C(=O)NCC(=O)N1CCC[C@H]1C(=O)N[C@@H](CCC(N)=O)C(=O)NCC(=O)N1C[C@H](O)C[C@H]1C(N)=O` [compound 357] (H-GCRTGTCTVQWLAHQIYQFTDKDKDNVAPRTKIGPQG[Hyp]-NH2; disulfide 2-7; N-terminus assumed), the “Max ThT signal (%)” value in data set [1] was 19.750%. Also, the EC50 at hAM1 receptor (cAMP assay, hAM1 receptor) is > 5 µM.

`CC[C@H](C)[C@H](NC(=O)[C@H](CC(N)=O)NC(=O)[C@H](CO)NC(=O)[C@H](CCCNC(=N)N)NC(=O)[C@@H]1CCCN1C(=O)[C@H](C)NC(=O)[C@@H](NC(=O)[C@H](CC(N)=O)NC(=O)[C@H](CC(=O)O)NC(=O)[C@H](CCCCN)NC(=O)[C@H](CC(=O)O)NC(=O)[C@H](CCCCN)NC(=O)[C@H](CC(=O)O)NC(=O)[C@@H](NC(=O)[C@H](Cc1ccccc1)NC(=O)[C@H](CCC(N)=O)NC(=O)[C@H](Cc1ccc(O)cc1)NC(=O)[C@@H](NC(=O)[C@H](CCC(N)=O)NC(=O)[C@H](Cc1c[nH]cn1)NC(=O)[C@H](C)NC(=O)[C@H](CC(C)C)NC(=O)[C@H](Cc1c[nH]c2ccccc12)NC(=O)[C@H](CCC(N)=O)NC(=O)[C@@H](NC(=O)[C@@H](NC(=O)[C@@H]1CSSC[C@H](NC(=O)CN)C(=O)N[C@@H](CCCNC(=N)N)C(=O)N[C@@H]([C@@H](C)O)C(=O)NCC(=O)N[C@@H]([C@@H](C)O)C(=O)N1)[C@@H](C)O)C(C)C)[C@@H](C)CC)[C@@H](C)O)C(C)C)C(=O)NCC(=O)N1CCC[C@H]1C(=O)N[C@@H](CCC(N)=O)C(=O)NCC(=O)N1C[C@H](O)C[C@H]1C(N)=O` [compound 359] (H-GCRTGTCTVQWLAHQIYQFTDKDKDNVAPRSNIGPQG[Hyp]-NH2; disulfide 2-7; N-terminus assumed): the “Max ThT signal (%)” value in data set [1] was found to be 20.350%. Moreover, the EC50 at hAM1 receptor (cAMP assay, hAM1 receptor) is > 5 µM.

`CC[C@H](C)[C@H](NC(=O)[C@H](CCC(N)=O)NC(=O)[C@H](Cc1c[nH]cn1)NC(=O)[C@H](C)NC(=O)[C@H](CC(C)C)NC(=O)[C@H](Cc1c[nH]c2ccccc12)NC(=O)[C@H](CCC(N)=O)NC(=O)[C@@H](NC(=O)[C@@H](NC(=O)[C@@H]1CSSC[C@H](NC(=O)CN)C(=O)N[C@@H](CCCNC(=N)N)C(=O)N[C@@H]([C@@H](C)O)C(=O)NCC(=O)N[C@@H]([C@@H](C)O)C(=O)N1)[C@@H](C)O)C(C)C)C(=O)N[C@@H](Cc1ccc(O)cc1)C(=O)N[C@@H](CCC(N)=O)C(=O)N[C@@H](Cc1ccccc1)C(=O)N[C@H](C(=O)N[C@@H](CC(=O)O)C(=O)N[C@@H](CCCCN)C(=O)N[C@@H](CC(=O)O)C(=O)N[C@@H](CCCCN)C(=O)N[C@@H](CC(=O)O)C(=O)N[C@@H](CC(N)=O)C(=O)N[C@H](C(=O)N[C@@H](C)C(=O)N1CCC[C@H]1C(=O)N[C@@H](CCCNC(=N)N)C(=O)N[C@@H](CO)C(=O)N[C@@H](CC(N)=O)C(=O)N[C@H](C(=O)N[C@@H](CO)C(=O)N1CCC[C@H]1C(=O)N[C@@H](CC(N)=O)C(=O)NCC(=O)N1C[C@H](O)C[C@H]1C(N)=O)C(C)C)C(C)C)[C@@H](C)O` [compound 360] (H-GCRTGTCTVQWLAHQIYQFTDKDKDNVAPRSNVSPNG[Hyp]-NH2; disulfide 2-7): the “Max ThT signal (%)” value in data set [1] stood at 26.350%. On hAM1 receptor (cAMP assay, hAM1 receptor), the EC50 was > 5 µM.
